In the supplement of paper PMC4314810:
± gives the standard deviation of the averaged measurements.

System: MCF7
Assay: HRG-induced Akt activation (dPAkt = log2 pAkt/Akt HRG-stimulated minus log2 pAkt/Akt basal) (log2 ratio difference); higher = stronger HRG-induced Akt(T308) phosphorylation
Conditions: miRNA mimic concentration 10 nM; time after transfection 72 h; heregulin 10 ng/ml; stimulation time 1 h
How it was run: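 MCF7 cells were plated […] in 96-well plates and transfected in two biological replicates with a library of 879 miRNA mimics (10 nM final) using Lipofectamine RNAiMax; 72 h later they were stimulated for 1 h with 10 ng/ml heregulin-beta1 or left unstimulated. After fixation in 4% PFA, phospho-Akt(T308) and total Akt were measured by In-Cell Western on an Odyssey, with signals corrected for column-wise fixation decay. Heregulin-induced Akt activation is the stimulated minus unstimulated value of the log ratio of phospho-Akt to total Akt, averaged over replicates. That log ratio is log2(pAkt/Akt).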

Sequence | HRG-induced Akt activation (log2)
UGAGUACCGCCAUGUCUGUUGGG | 1.98 ± 0.09
UGAGUAUUACAUGGCCAAUCUC | 1.74 ± 0.27
UGAGUGCCGGUGCCUGCCCUG | 1.43 ± 0.08
UGAGUGUGUGUGUGUGAGUGUGU | 2.295 ± 0.0047
UGAGUUGGCCAUCUGAGUGAG | 1.61 ± 0.27
UGAUAUGUUUGAUAUAUUAGGU | 1.52 ± 0.077
UGAUAUGUUUGAUAUUGGGUU | 1.75 ± 0.041
UGAUUGGUACGUCUGUGGGUAG | 2.35 ± 0.031
UGAUUGUAGCCUUUUGGAGUAGA | 1.96 ± 0.18
UGAUUGUCCAAACGCAAUUCU | 1.82 ± 0.3
UGCAACGAACCUGAGCCACUGA | 1.49 ± 0.14
UGCAACUUACCUGAGUCAUUGA | 1.61 ± 0.13
UGCACCAUGGUUGUCUGAGCAUG | 1.29 ± 0.33
UGCAGGACCAAGAUGAGCCCU | 1.41 ± 0.17
UGCCCUAAAUGCCCCUUCUGGC | 1.36 ± 0.27
UGCCCUUAAAGGUGAACCCAGU | 1.22 ± 0.2
UGCCUACUGAGCUGAAACACAG | 1.549 ± 0.007
UGCCUACUGAGCUGAUAUCAGU | 1.62 ± 0.029
UGCCUGGGUCUCUGGCCUGCGCGU | 1.29 ± 0.18
UGCCUGUCUACACUUGCUGUGC | 1.34 ± 0.089

Sequence | HRG-induced Akt activation (log2)
UGCGGGGCUAGGGCUAACAGCA | 2.49 ± 0.31
UGCUAUGCCAACAUAUUGCCAU | 1.72 ± 0.27
UGCUGGAUCAGUGGUUCGAGUC | 2.32 ± 0.36
UGCUUCCUUUCAGAGGGU | 1.61 ± 0.34
UGGAAGACUAGUGAUUUUGUUGU | 2.15 ± 0.38
UGGAAUGUAAAGAAGUAUGUAU | 1.76 ± 0.27
UGGAAUGUAAGGAAGUGUGUGG | 2.05 ± 0.28
UGGACGGAGAACUGAUAAGGGU | 1.48 ± 0.21
UGGACUGCCCUGAUCUGGAGA | 1.55 ± 0.66
UGGAGAGAAAGGCAGUUCCUGA | 0.965 ± 0.16
UGGAGGAGAAGGAAGGUGAUG | 1.81 ± 0.038
UGGAGUCCAGGAAUCUGCAUUUU | 0.279 ± 0.71
UGGAGUGUGACAAUGGUGUUUG | 2.527 ± 0.012
UGGAUUUCUUUGUGAAUCACCA | 1.87 ± 0.11
UGGAUUUUUGGAUCAGGGA | 2.21 ± 0.15
UGGCAGGGAGGCUGGGAGGGG | 1.63 ± 0.15
UGGCAGUGUAUUGUUAGCUGGU | 2.12 ± 0.35
UGGCAGUGUCUUAGCUGGUUGU | 1.99 ± 0.091
UGGCCCUGACUGAAGACCAGCAGU | 1.11 ± 0.22
UGGCUCAGUUCAGCAGGAACAG | 0.611 ± 0.18

Sequence | HRG-induced Akt activation (log2)
UGGGAACGGGUUCCGGCAGACGCUG | 1.22 ± 0.16
UGGGCGUAUCUGUAUGCUA | 1.83 ± 0.1
UGGGGAGCUGAGGCUCUGGGGGUG | 1.74 ± 0.26
UGGGUCUUUGCGGGCGAGAUGA | 1.89 ± 0.21
UGGGUGGUCUGGAGAUUUGUGC | 1.58 ± 0.13
UGGGUUCCUGGCAUGCUGAUUU | 1.27 ± 0.13
UGGGUUUACGUUGGGAGAACU | 1.44 ± 0.096
UGGUAGACUAUGGAACGUAGG | 0.953 ± 0.95
UGGUCUAGGAUUGUUGGAGGAG | 1.61 ± 0.078
UGGUGCGGAGAGGGCCCACAGUG | 0.984 ± 0.11
UGGUGGGCACAGAAUCUGGACU | 1.74 ± 0.12
UGGUGGGCCGCAGAACAUGUGC | 1.74 ± 0.035
UGGUGGUUUACAAAGUAAUUCA | 1.29 ± 0.11
UGGUUCUAGACUUGCCAACUA | 1.94 ± 0.026
UGGUUGACCAUAGAACAUGCGC | 1.2 ± 0.092
UGGUUGUAGUCCGUGCGAGAAUA | 1.37 ± 0.19
UGGUUUACCGUCCCACAUACAU | 0.811 ± 0.33
UGUAAACAUCCCCGACUGGAAG | 0.646 ± 0.057
UGUAAACAUCCUACACUCAGCU | 0.757 ± 0.3
